Assay results: PubChem BioAssay AID1745844 (Carcinogenic Potency Database (CPDB), 2022)
Activity calls are given as the source filed them. The rule behind the calls is not given here.

Tested on: rodent lifetime carcinogenesis bioassay, tumor incidence TD50
Assay: carcinogenic potency in animals, long-term in vivo studies, CPDB compilation (AID 1745844)

COP(=O)(OC)OC
TD50 (mouse, strain B6C3F1, females, by gavage, site: any site (literature study), lesion: several types, types named in the paper, dosed 103 weeks, study length 103 weeks): 385 mg/kg/day
TD50 (mouse, strain B6C3F1, females, by gavage, site: liver, lesion: hepatocellular adenoma + hepatocellular carcinoma + neoplastic nodule, dosed 103 weeks, study length 103 weeks): 6390 mg/kg/day
TD50 (mouse, strain B6C3F1, females, by gavage, site: lung, lesion: alveolar/bronchiolar adenoma + alveolar/bronchiolar carcinoma, dosed 103 weeks, study length 103 weeks): 3900 mg/kg/day
TD50 (mouse, strain B6C3F1, females, by gavage, site: uterus, endometrium, lesion: adenocarcinoma, NOS, dosed 103 weeks, study length 103 weeks): 335 mg/kg/day
carcinogen call (mouse, strain B6C3F1, males, by gavage, site: any site (literature study), lesion: several types, types named in the paper, dosed 103 weeks, study length 103 weeks): negative (inactive)
TD50 (mouse, strain B6C3F1, males, by gavage, site: lung, lesion: alveolar/bronchiolar adenoma + alveolar/bronchiolar carcinoma, dosed 103 weeks, study length 103 weeks): 61300 mg/kg/day
carcinogen call (rat, strain BOR:WISW (Wistar), females, in drinking water, site: any site (literature study), lesion: one or several types, types not named, dosed 52 weeks, study length 52 weeks): negative (inactive)
carcinogen call (rat, strain BOR:WISW (Wistar), females, in drinking water, site: any site (literature study), lesion: several types, types named in the paper, dosed 118 weeks, study length 128 weeks): negative (inactive)
carcinogen call (rat, strain BOR:WISW (Wistar), females, in drinking water, site: liver, lesion: hepatoma, dosed 118 weeks, study length 128 weeks): negative (inactive)
carcinogen call (rat, strain BOR:WISW (Wistar), males, in drinking water, site: any site (literature study), lesion: one or several types, types not named, dosed 52 weeks, study length 52 weeks): negative (inactive)
carcinogen call (rat, strain BOR:WISW (Wistar), males, in drinking water, site: any site (literature study), lesion: several types, types named in the paper, dosed 118 weeks, study length 128 weeks): negative (inactive)
carcinogen call (rat, strain BOR:WISW (Wistar), males, in drinking water, site: liver, lesion: hepatoma, dosed 118 weeks, study length 128 weeks): negative (inactive)
TD50 (rat, strain Fischer 344, females, by gavage, site: any site (literature study), lesion: several types, types named in the paper, dosed 104 weeks, study length 105 weeks): 73 mg/kg/day (inactive)
TD50 (rat, strain Fischer 344, males, by gavage, site: any site (literature study), lesion: several types, types named in the paper, dosed 104 weeks, study length 105 weeks): 54.5 mg/kg/day
TD50 (rat, strain Fischer 344, males, by gavage, site: liver, lesion: hepatocellular adenoma + hepatocellular carcinoma + neoplastic nodule, dosed 104 weeks, study length 105 weeks): 485 mg/kg/day
TD50 (rat, strain Fischer 344, males, by gavage, site: subcutaneous tissue, lesion: fibroma, dosed 104 weeks, study length 105 weeks): 123 mg/kg/day

COc1cc2c(cc1N)oc1ccccc12
TD50 (rat, strain Fischer, females, in feed, site: any site (literature study), lesion: malignant tumor, dosed 75 weeks, study length 75 weeks): 33.1 mg/kg/day
TD50 (rat, strain Fischer, females, in feed, site: external auditory canal, lesion: squamous-cell carcinoma, dosed 75 weeks, study length 75 weeks): 43.9 mg/kg/day
TD50 (rat, strain Fischer, females, in feed, site: mammary gland, lesion: adenocarcinoma, dosed 75 weeks, study length 75 weeks): 205 mg/kg/day
TD50 (rat, strain Fischer, females, in feed, site: urinary bladder, lesion: several types, types named in the paper, dosed 75 weeks, study length 75 weeks): 25.7 mg/kg/day
TD50 (rat, strain Fischer, females, in feed, site: urinary bladder, lesion: transitional-cell carcinoma, dosed 75 weeks, study length 75 weeks): 43.9 mg/kg/day
TD50 (rat, strain Fischer, males, in feed, site: any site (literature study), lesion: malignant tumor, dosed 75 weeks, study length 75 weeks): 78.2 mg/kg/day
TD50 (rat, strain Fischer, males, in feed, site: external auditory canal, lesion: squamous-cell carcinoma, dosed 75 weeks, study length 75 weeks): 78.2 mg/kg/day
TD50 (rat, strain Fischer, males, in feed, site: urinary bladder, lesion: several types, types named in the paper, dosed 75 weeks, study length 75 weeks): 26.4 mg/kg/day
TD50 (rat, strain Fischer, males, in feed, site: urinary bladder, lesion: transitional-cell carcinoma, dosed 75 weeks, study length 75 weeks): 78.2 mg/kg/day
TD50 (rat, strain Sprague-Dawley, females, in feed, site: any site (literature study), lesion: malignant tumor, dosed 75 weeks, study length 75 weeks): 25.7 mg/kg/day
TD50 (rat, strain Sprague-Dawley, females, in feed, site: external auditory canal, lesion: squamous-cell carcinoma, dosed 75 weeks, study length 75 weeks): 61.9 mg/kg/day
TD50 (rat, strain Sprague-Dawley, females, in feed, site: mammary gland, lesion: adenocarcinoma, dosed 75 weeks, study length 75 weeks): 61.9 mg/kg/day
TD50 (rat, strain Sprague-Dawley, females, in feed, site: urinary bladder, lesion: several types, types named in the paper, dosed 75 weeks, study length 75 weeks): 43.9 mg/kg/day
TD50 (rat, strain Sprague-Dawley, females, in feed, site: urinary bladder, lesion: transitional-cell carcinoma, dosed 75 weeks, study length 75 weeks): 205 mg/kg/day
TD50 (rat, strain Sprague-Dawley, males, in feed, site: any site (literature study), lesion: malignant tumor, dosed 75 weeks, study length 75 weeks): 78.2 mg/kg/day
TD50 (rat, strain Sprague-Dawley, males, in feed, site: kidney, lesion: squamous-cell carcinoma, dosed 75 weeks, study length 75 weeks): 164 mg/kg/day
TD50 (rat, strain Sprague-Dawley, males, in feed, site: urinary bladder, lesion: transitional-cell papilloma, dosed 75 weeks, study length 75 weeks): 164 mg/kg/day
TD50 (rat, strain Wistar, females, in feed, site: any site (literature study), lesion: malignant tumor, dosed 75 weeks, study length 75 weeks): 43.9 mg/kg/day
TD50 (rat, strain Wistar, females, in feed, site: liver, lesion: cystadenoma, dosed 75 weeks, study length 75 weeks): 205 mg/kg/day
TD50 (rat, strain Wistar, females, in feed, site: mammary gland, lesion: adenocarcinoma, dosed 75 weeks, study length 75 weeks): 97.7 mg/kg/day
TD50 (rat, strain Wistar, females, in feed, site: urinary bladder, lesion: several types, types named in the paper, dosed 75 weeks, study length 75 weeks): 43.9 mg/kg/day
TD50 (rat, strain Wistar, females, in feed, site: urinary bladder, lesion: transitional-cell carcinoma, dosed 75 weeks, study length 75 weeks): 97.7 mg/kg/day
TD50 (rat, strain Wistar, males, in feed, site: any site (literature study), lesion: benign tumor, dosed 84 weeks, study length 84 weeks): 53.3 mg/kg/day
TD50 (rat, strain Wistar, males, in feed, site: any site (literature study), lesion: malignant tumor, dosed 75 weeks, study length 75 weeks): 26.4 mg/kg/day
carcinogen call (rat, strain Wistar, males, in feed, site: any site (literature study), lesion: malignant tumor, dosed 84 weeks, study length 84 weeks): positive
TD50 (rat, strain Wistar, males, in feed, site: external auditory canal, lesion: squamous-cell carcinoma, dosed 75 weeks, study length 75 weeks): 78.2 mg/kg/day
TD50 (rat, strain Wistar, males, in feed, site: kidney, lesion: squamous-cell carcinoma, dosed 75 weeks, study length 75 weeks): 164 mg/kg/day
TD50 (rat, strain Wistar, males, in feed, site: urinary bladder, lesion: several types, types named in the paper, dosed 75 weeks, study length 75 weeks): 35.2 mg/kg/day
carcinogen call (rat, strain Wistar, males, in feed, site: urinary bladder, lesion: several types, types named in the paper, dosed 84 weeks, study length 84 weeks): positive
TD50 (rat, strain Wistar, males, in feed, site: urinary bladder, lesion: transitional-cell carcinoma, dosed 75 weeks, study length 75 weeks): 78.2 mg/kg/day

N[C@@H](Cc1cnc[nH]1)C(=O)O
carcinogen call (rat, strain F344/DuCrj, females, in feed, site: liver, lesion: hepatocellular adenoma, dosed 104 weeks, study length 107 weeks): negative (inactive)
TD50 (rat, strain F344/DuCrj, males, in feed, site: liver, lesion: hepatocellular adenoma, dosed 104 weeks, study length 107 weeks): 52200 mg/kg/day (inactive)

ClC(Cl)Br
TD50 (mouse, strain B6C3F1, females, by gavage, site: any site (literature study), lesion: several types, types named in the paper, dosed 102 weeks, study length 105 weeks): 62.9 mg/kg/day
TD50 (mouse, strain B6C3F1, females, by gavage, site: liver, lesion: hepatocellular adenoma + hepatocellular carcinoma + neoplastic nodule, dosed 102 weeks, study length 105 weeks): 28.9 mg/kg/day
TD50 (mouse, strain B6C3F1, females, by gavage, site: liver, lesion: hepatocellular adenoma + hepatocellular carcinoma, dosed 102 weeks, study length 105 weeks): 28.9 mg/kg/day
TD50 (mouse, strain B6C3F1, females, by gavage, site: liver, lesion: hepatocellular adenoma, dosed 102 weeks, study length 105 weeks): 36 mg/kg/day
TD50 (mouse, strain B6C3F1, females, by gavage, site: liver, lesion: hepatocellular carcinoma, dosed 102 weeks, study length 105 weeks): 144 mg/kg/day
TD50 (mouse, strain B6C3F1, females, by gavage, site: lung, lesion: alveolar/bronchiolar adenoma + alveolar/bronchiolar carcinoma, dosed 102 weeks, study length 105 weeks): 644 mg/kg/day
TD50 (mouse, strain B6C3F1, females, by gavage, site: multiple organs + spleen, lesion: malignant lymphoma, histiocytic type, dosed 102 weeks, study length 105 weeks): 132 mg/kg/day
TD50 (mouse, strain B6C3F1, males, by gavage, site: kidney, lesion: tubular-cell adenocarcinoma, dosed 102 weeks, study length 104 weeks): 336 mg/kg/day
TD50 (mouse, strain B6C3F1, males, by gavage, site: kidney, lesion: tubular-cell adenoma + tubular-cell adenocarcinoma, dosed 102 weeks, study length 104 weeks): 137 mg/kg/day
TD50 (mouse, strain B6C3F1, males, by gavage, site: kidney, lesion: tubular-cell adenoma, dosed 102 weeks, study length 104 weeks): 215 mg/kg/day
TD50 (mouse, strain B6C3F1, males, by gavage, site: multiple organs, lesion: malignant lymphoma, lymphocytic type, dosed 102 weeks, study length 104 weeks): 74.2 mg/kg/day
TD50 (rat, strain Fischer 344, females, by gavage, site: colon + kidney, lesion: adenocarcinoma, NOS + adenomatous polyp, NOS + tubular-cell adenoma + tubular-cell adenocarcinoma, dosed 102 weeks, study length 104 weeks): 84.8 mg/kg/day
TD50 (rat, strain Fischer 344, females, by gavage, site: colon, lesion: adenocarcinoma, NOS + adenomatous polyp, NOS, dosed 102 weeks, study length 104 weeks): 200 mg/kg/day
TD50 (rat, strain Fischer 344, females, by gavage, site: colon, lesion: adenocarcinoma, NOS, dosed 102 weeks, study length 104 weeks): 411 mg/kg/day
TD50 (rat, strain Fischer 344, females, by gavage, site: colon, lesion: adenomatous polyp, NOS, dosed 102 weeks, study length 104 weeks): 364 mg/kg/day
TD50 (rat, strain Fischer 344, females, by gavage, site: kidney, lesion: tubular-cell adenocarcinoma, dosed 102 weeks, study length 104 weeks): 272 mg/kg/day
TD50 (rat, strain Fischer 344, females, by gavage, site: kidney, lesion: tubular-cell adenoma + tubular-cell adenocarcinoma, dosed 102 weeks, study length 104 weeks): 143 mg/kg/day
TD50 (rat, strain Fischer 344, females, by gavage, site: kidney, lesion: tubular-cell adenoma, dosed 102 weeks, study length 104 weeks): 351 mg/kg/day
TD50 (rat, strain Fischer 344, males, by gavage, site: any site (literature study), lesion: several types, types named in the paper, dosed 102 weeks, study length 104 weeks): 267 mg/kg/day
TD50 (rat, strain Fischer 344, males, by gavage, site: colon + kidney + rectum, lesion: adenocarcinoma, NOS + adenomatous polyp, NOS + tubular-cell adenoma + tubular-cell adenocarcinoma, dosed 102 weeks, study length 104 weeks): 30.3 mg/kg/day
TD50 (rat, strain Fischer 344, males, by gavage, site: colon + rectum, lesion: adenocarcinoma, NOS + adenomatous polyp, NOS, dosed 102 weeks, study length 104 weeks): 30.7 mg/kg/day
TD50 (rat, strain Fischer 344, males, by gavage, site: colon + rectum, lesion: adenocarcinoma, NOS, dosed 102 weeks, study length 104 weeks): 35.6 mg/kg/day
TD50 (rat, strain Fischer 344, males, by gavage, site: colon + rectum, lesion: adenomatous polyp, NOS, dosed 102 weeks, study length 104 weeks): 55.6 mg/kg/day
TD50 (rat, strain Fischer 344, males, by gavage, site: kidney, lesion: tubular-cell adenocarcinoma, dosed 102 weeks, study length 104 weeks): 213 mg/kg/day
TD50 (rat, strain Fischer 344, males, by gavage, site: kidney, lesion: tubular-cell adenoma + tubular-cell adenocarcinoma, dosed 102 weeks, study length 104 weeks): 152 mg/kg/day
TD50 (rat, strain Fischer 344, males, by gavage, site: kidney, lesion: tubular-cell adenoma, dosed 102 weeks, study length 104 weeks): 583 mg/kg/day
TD50 (rat, strain Fischer 344, males, by gavage, site: liver, lesion: hepatocellular adenoma + hepatocellular carcinoma + neoplastic nodule, dosed 102 weeks, study length 104 weeks): 747 mg/kg/day
TD50 (rat, strain Fischer 344, males, by gavage, site: lung, lesion: alveolar/bronchiolar adenoma + alveolar/bronchiolar carcinoma, dosed 102 weeks, study length 104 weeks): 366 mg/kg/day
TD50 (rat, strain Fischer 344, males, by gavage, site: lung, lesion: alveolar/bronchiolar adenoma, dosed 102 weeks, study length 104 weeks): 447 mg/kg/day
TD50 (rat, strain Fischer 344, males, by gavage, site: tunica vaginalis, lesion: mesothelioma, NOS, dosed 102 weeks, study length 104 weeks): 350 mg/kg/day
TD50 (rat, strain Wistar, females, in drinking water, site: liver, lesion: neoplastic nodule, dosed 187 weeks, study length 187 weeks): 544 mg/kg/day
TD50 (rat, strain Wistar, males, in drinking water, site: pituitary gland, lesion: one or several types, types not named, dosed 182 weeks, study length 182 weeks): 911 mg/kg/day

CC(F)(Cl)Cl
TD50 (rat, strain Sprague-Dawley, males, inhaled, site: any site (literature study), lesion: several types, types named in the paper, dosed 105 weeks, study length 105 weeks): 5790 mg/kg/day
TD50 (rat, strain Sprague-Dawley, males, inhaled, site: testis, lesion: interstitial-cell adenoma, dosed 105 weeks, study length 105 weeks): 5260 mg/kg/day
